The nature of series [1]: Particle size distribution measurement (WET method, laser diffraction, Mastersizer). Conditions: PSD wet method, dispersant demineralised water, Triton X100. The class given is physicochemical. An excerpt:
Particle size distribution (PSD), summarized by D10, D50 and D90 values, were obtained by using the WET method, the details of which are as follows: • Material used: • Equipment: Mastersizer 300 (hydro MV) • Dispersant: demineralised water • Surfactant: Triton X100 • No saturation • Operational parameters: • optical model: Particles type (MS3000 only) no-spherical • Mie: • refractive index of particles: 1.443 • absorption index of particles: 0.1 • refractive index of the dispersant: 1.33 • Measurement: • Measurement time: 10 seconds • Measurement time of the background: 10 seconds • Stirrer speed: 1200 rpm +/−400 • Obscuration range: 5-19% • Delay time measurement: 1-5 minutes • Model: standard • Analysis precision: normal • Sample preparation: • Weight about 100 mg of product in a glass beaker • Add 2-4 drops of surfactant • Complete with the dispersant until the 20 mL mark of the 50 mL graduated beaker • Shake for 3 seconds to 60 seconds • Put in the external ultrasound cell • Sonication duration: 2-3minutes
After the milling step 5, the milled sample thus obtained from example 4 was characterized by measurement of its particle size distribution (see table 3 below) according to the method as defined above.
For comparison purposes, the measurement of the particle size distribution has also been carried out for the native 8-chloro-N-(4-(trifluoromethoxy)phenyl)quinolin-2-amine (Form I) obtained from step 4 of example 4 above (i.e. product obtained from example 4 before milling).

Series [2] in a line: USP <711> / Ph. Eur. 2.9.3 pharmacopeial dissolution profile (apparent dissolution test, paddle apparatus). The class given is physicochemical. Conditions: for solubility (percentage dissolved) at 45 min: 50 mg drug substance, 900 mL 0.25% CTAB in 0.1 M HCl, paddle USP type II 100 rpm. The method, then:
Pharmacopeial (USP <711>, Ph. Eur. 2.9.3) dissolution profiles of the drug substance were established.
A dissolution experiment evaluates the rate and extent that a compound forms a solution under carefully controlled conditions and using paddle dissolution apparatus fulfilling USP <711>, Ph. Eur. 2.9.3 requirements.
The dissolution profiles of 50 mg from a native ABX464 and one milled ABX 464 (8000 rpm) drug substance (DS) in the dissolution media have been compared.
The dissolution conditions and materials were as follows: • Equipment • Class A glassware • Analytical scale • Automatic pipette • UPLC system consisting of a binary or quaternary pump, an automated injector, a thermostated column oven, and a UV or DAD detector controlled by the Waters Empower® software • AT 7 smart (Sotax) or equivalent dissolution apparatus with USP type II paddle • Chemicals • water (dissolution medium) Demineralized water purified by Milli_Q Millipore (type II) • Demineralized water purified by Milli_Q Millipore • syringe filter Spartan 30 mm HPLC-Certified syringe Filter, 0.2 μm, RC (regenerated cellulose) • Acetonitrile Biosolve (UPLC grade) (ACN) • Cetyl trimethylammonium bromide (CTAB) • Hydrochloric acid (HCl) 1M (AVS tritinorm) • Formic acid (LCMS grade) • Chromatographic conditions • Column: Acquity UPLC BEH C18, 2.1 mm ID*50 mm, 1.7 μm pore size or equivalent • Mobile phase A: 0.1% (v/v) Formic acid in water • Mobile phase B: ACN • Isocratic mode 35% A/65% B • Flow rate 0.3 mL/min • Analytical run time: 5 min • Volume injection: 5 μL • Detection: UV at 220 nm • Autosampler: room temperature • Column temperature: 40° C. • Needle wash: Water/ACN (50/50 v/v) • Diluent • Dissolution medium: 0.25% CTAB in 0.1 M HCl. Transfer 25 g of CTAB into a 10 000 mL volumetric flask, add 1 000 mL of HCl 1M and dilute to volume with water (different amounts and volumes may be used as long as the final concentration remains the same) • Solutions
Accurately weight 22.2 mg of the drug substance into a 100 mL volumetric flask, dissolve in about 5 mL ACN and dilute to volume with diluent. • Dissolution conditions • Dissolution medium: 0.25% CTAB in 0.1 M HCl • Temperature: 37° C. +/−0.5° C. • Agitation: 100 rpm +/−1 rpm • Type of agitation: Paddle (USP type II) • Volume of dissolution medium: 900 mL • Sampling time: 5, 10, 15, 30, 45, 60, 75 and 90 min • Sampling volume 5 ml (discard the first 3 ml) • Test on 6 vessels • place the sample (50 mg) into each dissolution vessel
The non-corrected dissolved percentages were calculated as follows: […]
The corrected dissolved percentage were calculated as follows: […]

Setting [3] is: listed as Native (not milled) compound.

For `FC(F)(F)Oc1ccc(Nc2ccc3cccc(Cl)c3n2)cc1` [milled compound, 8-chloro-N-(4-(trifluoromethoxy)phenyl)quinolin-2-amine], in series [1], the “Particle size distribution D10” value is given as 6.8 μm, the “Particle size distribution D50” value stood at 50.0 μm and the “Particle size distribution D90” value was 122.0 μm. Besides, in series [1] (listed as milled ABX464), the “Particle size distribution D10” value is listed as 6.8 μm, the “Particle size distribution D50” value was 50.0 μm and the “Particle size distribution D90” value came to 122.0 μm. Besides, the “solubility (percentage dissolved) at 45 min” value in series [2] (37° C., 45 min) is listed as 95.4%. For the same compound, the “solubility compared to the native compound (FIG. 2 dissolution profile)” value in series [2] (milled at 8000 rpm vs native, 0.25% CTAB in 0.1 M HCl, 37° C.) is reported as “improved solubility”. The “increase of solubility (percentage dissolved) of milled compound compared to the native compound at 45 min” value in series [2] (same dissolution conditions, 45 min, milled (8000 rpm) vs native) is “about 38.1%”.
Turning to `FC(F)(F)Oc1ccc(Nc2ccc3cccc(Cl)c3n2)cc1` [native compound, 8-chloro-N-(4-(trifluoromethoxy)phenyl)quinolin-2-amine], in series [1] (setting [3]), the “Particle size distribution D10” value is 24.5 μm, the “Particle size distribution D50” value was 164.0 μm and the “Particle size distribution D90” value was 444.0 μm. Also, the “solubility (percentage dissolved) at 45 min” value in series [2] (37° C., 45 min) is 57.3%.

Source of the values: patent US20240182422A1, “PREPARATION METHOD OF QUINOLINE DERIVATIVE COMPOUNDS” (ABIVAX, priority 2021, published 2024).
